This note sets out measurements from US11667602B2, “Compounds and their use” (AstraZeneca AB, priority 2020, dated 2023).

Data set [1] in a line: Human Plasma Protein Binding (Test B). The class given is in vitro ADME. The following applies: fraction unbound (fu). The method, boiled down:
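Human plasma protein binding run per the published Wernevik et al. (2020) integrated DMPK panel protocol. Values are fraction unbound (fu, % free); repeat runs averaged arithmetically.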

The nature of data set [2]: Human Liver Microsomal Stability (Test C). The class given is in vitro ADME. The following applies: for microsomal CLint: human, liver microsomes. The method, boiled down:
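Human liver microsome incubation per the Wernevik et al. integrated DMPK panel protocol. Intrinsic clearance reported as CLint in μl/min/mg protein, averaged arithmetically over repeat runs.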

Data set [3] is described as follows: Human Hepatocyte Stability (Test D). The class given is in vitro ADME. As to conditions: geometric mean if run multiple times; for hepatocyte CLint at 1 µM: human, cryopreserved pooled human hepatocytes (LiverPool 10-Donor). As to the method:
Human Hepatocyte Stability (Test D)
The metabolic stability of compounds in human hepatocytes was assessed using the following protocol:
1. Prepare 10 mM stock solutions of compound and control compounds in appropriate solvent (DMSO). Place incubation medium (L-15 Medium) in a 37° C. water bath, and allow warming for at least 15 minutes prior to use.
2. Add 80 μL of acetonitrile to each well of the 96-well deep well plate (“Quenching plate”).
3. In a new 96-well plate, dilute the 10 mM test compounds and the control compounds to 100 μM by combining 198 μL of acetonitrile and 2 μL of 10 mM stock solution.
4. Remove a vial of cryopreserved (less than −150° C.) human hepatocytes (LiverPool™ 10-Donor Human hepatocytes obtained from Bioreclamation IVT (Product No. S01205)) from storage, ensuring that vials remain at cryogenic temperatures until thawing process ensues. As quickly as possible, thaw the cells by placing the vial in a 37° C. water bath and gently shaking the vials. Vials should remain in water bath until all ice crystals have dissolved and are no longer visible. After thawing is complete, spray vial with 70% ethanol, transfer the vial to a bio-safety cabinet.
5. Open the vial and pour the contents into the 50 mL conical tube containing thawing medium. Place the 50 mL conical tube into a centrifuge and spin at 100 g for 10 minutes (room temperature).
6. Using Cellometer® Vision, count cells and determine the viable cell density. Cells with poor viability (<80% viability) are not acceptable for use.
7. Transfer 247.5 μL of hepatocytes into each well of a 96-well cell incubation plate. Place the plate on Eppendorf Thermomixer Comfort plate shaker to allow the hepatocytes to warm for 10 minutes.
8. Add 2.5 μL of 100 μM test compound or control compounds into an incubation well containing cells to initiate the reaction.
9. Incubate the plate at 37° C. and 900 rpm on an Eppendorf Thermomixer Comfort plate shaker.
10. Centrifuge the quenching plates for 20 minutes at 4,000 rpm. Transfer 30 μL of supernatant of each compound into a 96-well analysis plate. 4 compounds are pooled together into one cassette. Then dilute the pooled sample by adding of 180 μl of pure water. All incubations are performed in singlicate.
All calculations were carried out using Microsoft Excel. Peak areas were determined from extracted ion chromatograms. In vitro intrinsic clearance (in vitro Clint, in μL/min/10^6 cells) of parent compound was determined by regression analysis of the Ln percent parent disappearance vs. time curve. The in vitro intrinsic clearance (in vitro Clint, in μL/min/10^6 cells) reported in Table 36, and was determined from the slope value using the following equation: in vitro Clint=kV/N
V=incubation volume (0.25 mL);
N=number of hepatocytes per well (0.25×10^6 cells)
Where the assay was run multiple times for the same compound, the geometric mean is reported.

A short description of data set [4]: Rat Hepatocyte Stability (Test E). The class given is in vitro ADME. The following applies: geometric mean if run multiple times; for hepatocyte CLint: rat, hepatocytes. The method, boiled down:
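Run per the published AstraZeneca-type rat hepatocyte stability protocol (Wernevik et al. panel). Values are mean intrinsic clearance, Clint in μl/min/10^6 cells; geometric mean used for repeated runs.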

A short description of data set [5]: Solubility (Test F). Type of data set: physicochemical. As to conditions: arithmetic mean if run multiple times. As to the method:
The assay was conducted according to the Solubility Assay described in pages 164-167 of Wernevik, J. et al., “A Fully Integrated Assay Panel for Early Drug Metabolism and Pharmacokinetics Profiling”, Assay and Drug Development Technologies, 2020, 18(4), 157-179. Data are reported in Table 36 as solubility ([…]. Where the assay was run multiple times for the same compound, the arithmetic mean is reported.

The target in data set [6] is T1, human RXFP1 (Homo sapiens, UniProt Q9HBX9).
T1 sequence (Q9HBX9 1-757): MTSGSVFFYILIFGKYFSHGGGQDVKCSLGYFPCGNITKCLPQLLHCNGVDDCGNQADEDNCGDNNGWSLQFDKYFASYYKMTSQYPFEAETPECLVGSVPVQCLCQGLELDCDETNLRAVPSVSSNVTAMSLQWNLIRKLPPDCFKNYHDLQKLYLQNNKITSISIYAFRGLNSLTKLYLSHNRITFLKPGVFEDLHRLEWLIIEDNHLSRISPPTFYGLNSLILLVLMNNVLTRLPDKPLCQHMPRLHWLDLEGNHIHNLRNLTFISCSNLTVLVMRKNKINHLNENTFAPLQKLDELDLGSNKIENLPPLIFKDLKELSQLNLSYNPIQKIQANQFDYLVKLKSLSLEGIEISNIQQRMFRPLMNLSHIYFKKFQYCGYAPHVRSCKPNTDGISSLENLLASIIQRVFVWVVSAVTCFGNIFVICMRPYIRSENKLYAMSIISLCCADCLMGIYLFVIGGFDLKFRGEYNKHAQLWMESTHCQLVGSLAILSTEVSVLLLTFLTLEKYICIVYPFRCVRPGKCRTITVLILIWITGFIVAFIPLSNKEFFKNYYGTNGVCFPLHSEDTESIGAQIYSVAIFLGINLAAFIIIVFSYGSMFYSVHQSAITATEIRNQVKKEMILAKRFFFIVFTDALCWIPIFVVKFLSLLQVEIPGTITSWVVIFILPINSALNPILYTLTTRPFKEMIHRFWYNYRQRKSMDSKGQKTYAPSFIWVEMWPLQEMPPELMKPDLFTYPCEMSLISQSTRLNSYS
In words: RXFP1 Hu cAMP (Test A). Set-up: expressed in transfected cells; host or cells: Jump-In T-REx CHO-K1 cells (ThermoFisher), induced with 10 ng/ml doxycycline for 24 h. The class given is cell-based. The following applies: RXFP1 Hu cAMP; for EC50: read-out: Test A EC50. The method, boiled down:
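Cells: CHO-K1 stably carrying human RXFP1, expressed after 24 h 10 ng/ml doxycycline; 0.5 mM IBMX final, HTRF detection after 2 h at room temperature.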

Molecules are shown by their SMILES. Converted amounts (≈) assume the structure as drawn.

As usually defined, the microsomal CLint is a measure of how fast metabolising enzymes remove a compound, apart from limits set by blood flow. What is called hepatocyte CLint is the rate of metabolic loss divided by the concentration. The low end stands for greater metabolic stability, the high end for faster metabolism. By solubility is commonly meant how much of the substance goes into solution per volume. Low values mean little dissolved substance, high ones much dissolved substance. As to `COc1c(Cl)cc(O[C@H]2CC[C@@](C)(C(=O)O)CC2)cc1C(=O)N[C@@H]1[C@H]2CC[C@H](C2)[C@@H]1C(=O)NCC1(C)CCC1` [Example 403], the “Test B Human Plasma Protein Binding (% free)” value in data set [1] is listed as 1.5 % free. This molecule gave a microsomal CLint in data set [2] of 81 µL/min/mg. In addition, the hepatocyte CLint at 1 µM in data set [3] was found to be 13 µL/min/1e6 cells. The molecule further returned a hepatocyte CLint in data set [4] of 25 µL/min/1e6 cells. Also, the solubility in data set [5] stood at 660 µM (≈ 370 µg/mL).

As a reminder, the EC50 is the concentration that produces a half-maximal response. Regarding `COc1cc(F)c(O[C@H]2CC[C@@](C)(C(=O)O)CC2)cc1C(=O)N[C@@H]1CCC[C@@H]1C(=O)Nc1ccc(F)c(S(F)(F)(F)(F)F)c1` [Example 352], in data set [1], the “Test B Human Plasma Protein Binding (% free)” value worked out at 0.26 % free. The molecule further displayed a hepatocyte CLint at 1 µM in data set [3] of 13 µL/min/1e6 cells. In data set [4], the hepatocyte CLint is 38 µL/min/1e6 cells. Further, in data set [5], the solubility was found to be 340 µM (≈ 223 µg/mL). Also, in data set [6], the “Test A Sinf” value worked out at 105% and the EC50 came to 3 nM.

In the case of `COc1cc(F)c(O[C@H]2CC[C@@](C)(C(=O)O)CC2)cc1C(=O)N[C@@H]1[C@H]2CC[C@H](C2)[C@@H]1C(=O)NCC(C)C` [Example 34, (1S,4s)-4-(2-Fluoro-5-(((1S,2R,3S,4R)-3-(isobutylcarbamoyl)bicyclo[2.2.1]heptan-2-yl)carbamoyl)-4-methoxyphenoxy)-1-methylcyclohexane-1-carboxylic acid], the “Test B Human Plasma Protein Binding (% free)” value in data set [1] was determined as 4.8 % free. In data set [2], this molecule came in with a microsomal CLint of 5.7 µL/min/mg. This molecule also displayed a hepatocyte CLint at 1 µM in data set [3] below 1 µL/min/1e6 cells. Moreover, the intrinsic clearance (hepatocyte CLint) in data set [4] was determined as 19 µL/min/1e6 cells. In addition, the solubility in data set [5] turned out to be 880 µM (≈ 456 µg/mL).

Turning to `COc1cc(C#N)c(O[C@H]2CC[C@@](C)(C(=O)O)CC2)cc1C(=O)N[C@@H]1[C@H]2CC[C@H](C2)[C@@H]1C(=O)NCC1(C)CCC1` [Example 592, (1S,4s)-4-(2-cyano-4-methoxy-5-(((1S,2R,3S,4R)-3-(((1-methylcyclobutyl)methyl)carbamoyl)bicyclo[2.2.1]heptan-2-yl)carbamoyl)phenoxy)-1-methylcyclohexane-1-carboxylic acid], in data set [1], the “Test B Human Plasma Protein Binding (% free)” value worked out at 6.3 % free. Moreover, the microsomal CLint in data set [2] was 19 µL/min/mg. For the same molecule, the hepatocyte CLint at 1 µM in data set [3] turned out to be 5.6 µL/min/1e6 cells. In data set [4], the hepatocyte CLint worked out at 18 µL/min/1e6 cells. Further, the solubility in data set [5] is above 890 µM.

For `COc1cc(F)c(O[C@H]2CC[C@@](C)(C(=O)O)CC2)cc1C(=O)N[C@@H]1[C@H]2CC[C@H](C2)[C@@H]1C(=O)N[C@H](C)C(C)(C)C` [Example 36, (1S,4s)-4-(5-(((1S,2R,3S,4R)-3-(((R)-3,3-Dimethylbutan-2-yl)carbamoyl)bicyclo[2.2.1]heptan-2-yl)carbamoyl)-2-fluoro-4-methoxyphenoxy)-1-methylcyclohexane-1-carboxylic acid], in data set [1], the “Test B Human Plasma Protein Binding (% free)” value worked out at 6.9 % free. The molecule also displayed a microsomal CLint in data set [2] of 33 µL/min/mg. Besides, in data set [3], the hepatocyte CLint at 1 µM was found to be 5.8 µL/min/1e6 cells. Moreover, in data set [4], the hepatocyte CLint stood at 7.2 µL/min/1e6 cells. In addition, the solubility in data set [5] was 22 µM (≈ 12 µg/mL).

In the case of `COc1cc(F)c(-c2ccc(C(=O)O)cc2)cc1C(=O)Nc1ccccc1C(=O)Nc1cccc(S(=O)(=O)C(F)(F)F)c1` [Example 328, 2′-Fluoro-4′-methoxy-5′-((2-((3-((trifluoromethyl)sulfonyl)phenyl)carbamoyl)phenyl)carbamoyl)-[1,1′-biphenyl]-4-carboxylic acid], in data set [1], the “Test B Human Plasma Protein Binding (% free)” value was below 0.10 % free. In data set [2], this molecule displayed a microsomal CLint below 3 µL/min/mg. Besides, in data set [3], the hepatocyte CLint at 1 µM amounted to 11 µL/min/1e6 cells. In data set [6], the “Test A Sinf” value was 117% and the EC50 was determined as 190 nM.

Consider `COc1cc(F)c(-c2ccc(CCC(N)(CO)CO)c(F)c2)cc1C(=O)N[C@@H]1[C@H]2CC[C@H](C2)[C@@H]1C(=O)Nc1cccc(S(=O)(=O)C(F)(F)F)c1` [Example 266, (1R,2S,3R,4S)-3-(4′-(3-Amino-4-hydroxy-3-(hydroxymethyl)butyl)-3′,6-difluoro-4-methoxy-[1,1′-biphenyl]-3-carboxamido)-N-(3-((trifluoromethyl)sulfonyl)phenyl)bicyclo[2.2.1]heptane-2-carboxamide], for which the “Test B Human Plasma Protein Binding (% free)” value in data set [1] is below 0.34 % free. Further, the microsomal CLint in data set [2] was 68 µL/min/mg. This molecule also displayed a hepatocyte CLint at 1 µM in data set [3] of 9.4 µL/min/1e6 cells. In data set [4], this molecule had a hepatocyte CLint of 8.8 µL/min/1e6 cells. For the same molecule, in data set [6], the “Test A Sinf” value is 103% and the EC50 was 110 nM.

For `COc1cc(F)c(-c2ccc(-c3nn[nH]n3)cc2)cc1C(=O)N[C@@H]1[C@H]2CC[C@H](C2)[C@@H]1C(=O)Nc1cccc(S(=O)(=O)C(F)(F)F)c1` [Example 325, (1R,2S,3R,4S)-3-(6-Fluoro-4-methoxy-4′-(1H-tetrazol-5-yl)-[1,1′-biphenyl]-3-carboxamido)-N-(3-((trifluoromethyl)sulfonyl)phenyl)bicyclo[2.2.1]heptane-2-carboxamide], the “Test B Human Plasma Protein Binding (% free)” value in data set [1] is below 0.30 % free. For the same molecule, the microsomal CLint in data set [2] was found to be 18 µL/min/mg. Besides, in data set [3], the hepatocyte CLint at 1 µM was 5 µL/min/1e6 cells. The same molecule gave a solubility in data set [5] of 880 µM (≈ 580 µg/mL). In data set [6], the “Test A Sinf” value was 109% and the EC50 is 120 nM.

For the molecule `CCC(C)CNC(=O)C1C2CCC(C2)C1NC(=O)c1cc(OC2CCC(C(=O)O)CC2)c(F)cc1OC` (single isomer, unassigned) [Example 203, (1S,4s)-4-(2-Fluoro-4-methoxy-5-(((1S,2R,3S,4R)-3-(((R*)-2-methylbutyl)carbamoyl)bicyclo[2.2.1]heptan-2-yl)carbamoyl)phenoxy)cyclohexane-1-carboxylic acid], the “Test C Human Liver Microsomal Stability Clint” value in data set [2] (human liver microsomes) amounted to 19 µL/min/mg. Moreover, in data set [3] (human hepatocytes), the “Test D Human Hepatocyte Stability Clint” value was determined as 5 μL/min/10^6 cells. Besides, the “Test E Rat Hepatocyte Stability Clint” value in data set [4] (rat hepatocytes) is listed as 34 μL/min/10^6 cells. Also, in data set [5], the solubility is 1000 µM (≈ 519 µg/mL). Also, the “Test A Sinf” value in data set [6] is reported as 118%.
